Reference: US20220281848A1, “PYRAZOLE-SUBSTITUTED PYRROLIDINONES AS HERBICIDES” (FMC Corporation, priority 2019, published 2022)

Key:
Type in all cases: in vivo
Details in all cases: after 13 d
[1] = tested on: ivy-leaved morning glory (Ipomoea hederacea, IPOHE); assay: Test A pre-emergence, ivy-leaved morning glory
Experimental: (§1) Seeds of corn (Zea mays, ZEAMX), giant foxtail (Setaria faberi, SETFA), barnyardgrass (Echinochloa crus-galli, ECHCG), ivy-leaved morning glory (Ipomoea hederacea, IPOHE), redroot pigweed (Amaranthus retroflexus, AMARE) and velvetleaf (Abutilon theophrasti, ABUTH) were sown in standard soil in pots. After cultivation for one day under controlled conditions in a glasshouse (at 24/16° C., day/night; 14 h light; 65% humidity), the plants were sprayed with an aqueous spray solution derived from the formulation of the technical active ingredient in acetone/water (50:50) solution containing 0.5% Tween 20 (polyoxyethylene sorbitan monolaurate, CAS RN 9005-64-5) to give a final dose of 15.625, 62.5 or 250 g/ha of test compound.
(§2) The test plants were then grown under controlled conditions in a glasshouse (at 24/16° C., day/night; 14 h light; 65% humidity) and watered twice daily. After 13 d the test was evaluated (100=total damage to plant; 0=no damage to plant).

[2] = tested on: redroot pigweed (Amaranthus retroflexus, AMARE); assay: Test A pre-emergence, redroot pigweed
Experimental: as §1, §2

[3] = tested on: ivy-leaved morning glory (Ipomoea hederacea, IPOHE); assay: Test A post-emergence, ivy-leaved morning glory
Experimental: as §1, with “IPOHE)),” for “IPOHE),”, “8 d” for “one day”
(§3) The test plants were then grown on under controlled conditions in a glasshouse (at 24/16° C., day/night; 14 h light; 65% humidity) and watered twice daily. After 13 d the test was evaluated (100=total damage to plant; 0=no damage to plant).

[4] = tested on: giant foxtail (Setaria faberi, SETFA); assay: Test A pre-emergence, giant foxtail
Experimental: as §1, §2

[5] = tested on: barnyardgrass (Echinochloa crus-galli, ECHCG); assay: Test A post-emergence, barnyardgrass
Experimental: as §1, with “IPOHE)),” for “IPOHE),”, “8 d” for “one day”
as §3

[6] = tested on: barnyardgrass (Echinochloa crus-galli, ECHCG); assay: Test A pre-emergence, barnyardgrass
Experimental: as §1, §2

corn (Zea mays, ZEAMX) [7] = assay: Test A pre-emergence, corn
Experimental: as §1, §2

[8] = tested on: velvetleaf (Abutilon theophrasti, ABUTH); assay: Test A pre-emergence, velvetleaf
Experimental: as §1, §2

corn (Zea mays, ZEAMX) [9] = assay: Test A post-emergence, corn
Experimental: as §1, with “IPOHE)),” for “IPOHE),”, “8 d” for “one day”
as §3

[10] = tested on: velvetleaf (Abutilon theophrasti, ABUTH); assay: Test A post-emergence, velvetleaf
Experimental: as §1, with “IPOHE)),” for “IPOHE),”, “8 d” for “one day”
as §3

[11] = tested on: giant foxtail (Setaria faberi, SETFA); assay: Test A post-emergence, giant foxtail
Experimental: as §1, with “IPOHE)),” for “IPOHE),”, “8 d” for “one day”
as §3

[12] = tested on: redroot pigweed (Amaranthus retroflexus, AMARE); assay: Test A post-emergence, redroot pigweed
Experimental: as §1, with “IPOHE)),” for “IPOHE),”, “8 d” for “one day”
as §3

Compound | damage to plant (100=total damage; 0=no damage) IPOHE ([1]; Pre-Emergence at 15.625 g/ha) | damage to plant (100=total damage; 0=no damage) IPOHE ([1]; Pre-Emergence at 62.5 g/ha) | damage to plant (100=total damage; 0=no damage) IPOHE ([1]; Pre-Emergence at 250 g/ha) | damage to plant (100=total damage; 0=no damage) AMARE ([2]; Pre-Emergence at 15.625 g/ha) | damage to plant (100=total damage; 0=no damage) AMARE ([2]; Pre-Emergence at 62.5 g/ha) | damage to plant (100=total damage; 0=no damage) AMARE ([2]; Pre-Emergence at 250 g/ha) | damage to plant (100=total damage; 0=no damage) IPOHE ([3]; Post-Emergence at 15.625 g/ha) | damage to plant (100=total damage; 0=no damage) IPOHE ([3]; Post-Emergence at 62.5 g/ha) | damage to plant (100=total damage; 0=no damage) IPOHE ([3]; Post-Emergence at 250 g/ha) | damage to plant (100=total damage; 0=no damage) SETFA ([4]; Pre-Emergence at 15.625 g/ha) | damage to plant (100=total damage; 0=no damage) SETFA ([4]; Pre-Emergence at 62.5 g/ha) | damage to plant (100=total damage; 0=no damage) SETFA ([4]; Pre-Emergence at 250 g/ha) | damage to plant (100=total damage; 0=no damage) ECHCG ([5]; Post-Emergence at 15.625 g/ha) | damage to plant (100=total damage; 0=no damage) ECHCG ([5]; Post-Emergence at 62.5 g/ha) | damage to plant (100=total damage; 0=no damage) ECHCG ([5]; Post-Emergence at 250 g/ha) | damage to plant (100=total damage; 0=no damage) ECHCG ([6]; Pre-Emergence at 15.625 g/ha) | damage to plant (100=total damage; 0=no damage) ECHCG ([6]; Pre-Emergence at 62.5 g/ha) | damage to plant (100=total damage; 0=no damage) ECHCG ([6]; Pre-Emergence at 250 g/ha) | damage to plant (100=total damage; 0=no damage) ZEAMX (corn (Zea mays, ZEAMX) [7]; Pre-Emergence at 15.625 g/ha) | damage to plant (100=total damage; 0=no damage) ZEAMX (corn (Zea mays, ZEAMX) [7]; Pre-Emergence at 62.5 g/ha) | other results
CN1C[C@H](c2nn(C)c3c(Cl)cccc23)[C@@H](C(=O)Nc2cccc(F)c2F)C1=O [Compound 5] | 0 | 0 | 0 | 0 | 0 | 30 | 0 | 0 | 0 | 0 | 30 | 80 | 0 | 60 | 80 | 0 | 20 | 80 | 0 | 0 | damage to plant (100=total damage; 0=no damage) ZEAMX (corn (Zea mays, ZEAMX) [7]; Pre-Emergence at 250 g/ha): 0; damage to plant (100=total damage; 0=no damage) ABUTH ([8]; Pre-Emergence at 15.625 g/ha): 0; damage to plant (100=total damage; 0=no damage) ABUTH ([8]; Pre-Emergence at 62.5 g/ha): 0; damage to plant (100=total damage; 0=no damage) ABUTH ([8]; Pre-Emergence at 250 g/ha): 10; damage to plant (100=total damage; 0=no damage) ZEAMX (corn (Zea mays, ZEAMX) [9]; Post-Emergence at 15.625 g/ha): 0; damage to plant (100=total damage; 0=no damage) ZEAMX (corn (Zea mays, ZEAMX) [9]; Post-Emergence at 62.5 g/ha): 0; damage to plant (100=total damage; 0=no damage) ZEAMX (corn (Zea mays, ZEAMX) [9]; Post-Emergence at 250 g/ha): 0; damage to plant (100=total damage; 0=no damage) ABUTH ([10]; Post-Emergence at 15.625 g/ha): 0; damage to plant (100=total damage; 0=no damage) ABUTH ([10]; Post-Emergence at 62.5 g/ha): 0; damage to plant (100=total damage; 0=no damage) ABUTH ([10]; Post-Emergence at 250 g/ha): 0; damage to plant (100=total damage; 0=no damage) SETFA ([11]; Post-Emergence at 15.625 g/ha): 10; damage to plant (100=total damage; 0=no damage) SETFA ([11]; Post-Emergence at 62.5 g/ha): 50; damage to plant (100=total damage; 0=no damage) SETFA ([11]; Post-Emergence at 250 g/ha): 80; damage to plant (100=total damage; 0=no damage) AMARE ([12]; Post-Emergence at 15.625 g/ha): 0; damage to plant (100=total damage; 0=no damage) AMARE ([12]; Post-Emergence at 62.5 g/ha): 0; damage to plant (100=total damage; 0=no damage) AMARE ([12]; Post-Emergence at 250 g/ha): 0
CN1CC(c2nn(C)c(Cl)c2Br)C(C(=O)Nc2ccc(F)cc2F)C1=O (racemic) [Compound 30] | 0 | 0 | 10 | 0 | 0 | 10 | 0 | 0 | 0 | 0 | 0 | 10 | 0 | 20 | 50 | 0 | 10 | 20 | 0 | 0 | damage to plant (100=total damage; 0=no damage) ZEAMX (corn (Zea mays, ZEAMX) [7]; Pre-Emergence at 250 g/ha): 0; damage to plant (100=total damage; 0=no damage) ABUTH ([8]; Pre-Emergence at 15.625 g/ha): 0; damage to plant (100=total damage; 0=no damage) ABUTH ([8]; Pre-Emergence at 62.5 g/ha): 0; damage to plant (100=total damage; 0=no damage) ABUTH ([8]; Pre-Emergence at 250 g/ha): 0; damage to plant (100=total damage; 0=no damage) ZEAMX (corn (Zea mays, ZEAMX) [9]; Post-Emergence at 15.625 g/ha): 0; damage to plant (100=total damage; 0=no damage) ZEAMX (corn (Zea mays, ZEAMX) [9]; Post-Emergence at 62.5 g/ha): 0; damage to plant (100=total damage; 0=no damage) ZEAMX (corn (Zea mays, ZEAMX) [9]; Post-Emergence at 250 g/ha): 0; damage to plant (100=total damage; 0=no damage) ABUTH ([10]; Post-Emergence at 15.625 g/ha): 0; damage to plant (100=total damage; 0=no damage) ABUTH ([10]; Post-Emergence at 62.5 g/ha): 0; damage to plant (100=total damage; 0=no damage) ABUTH ([10]; Post-Emergence at 250 g/ha): 0; damage to plant (100=total damage; 0=no damage) SETFA ([11]; Post-Emergence at 15.625 g/ha): 10; damage to plant (100=total damage; 0=no damage) SETFA ([11]; Post-Emergence at 62.5 g/ha): 20; damage to plant (100=total damage; 0=no damage) SETFA ([11]; Post-Emergence at 250 g/ha): 50; damage to plant (100=total damage; 0=no damage) AMARE ([12]; Post-Emergence at 15.625 g/ha): 0; damage to plant (100=total damage; 0=no damage) AMARE ([12]; Post-Emergence at 62.5 g/ha): 0; damage to plant (100=total damage; 0=no damage) AMARE ([12]; Post-Emergence at 250 g/ha): 10
CN1CC(c2nn(C)c(Cl)c2Br)C(C(=O)Nc2ccc(F)c(F)c2F)C1=O (racemic) [Compound 32] | 0 | 0 | 10 | 0 | 0 | 0 | 0 | 0 | 10 | 20 | 60 | 90 | 10 | 40 | 80 | 30 | 50 | 70 | 0 | 10 | damage to plant (100=total damage; 0=no damage) ZEAMX (corn (Zea mays, ZEAMX) [7]; Pre-Emergence at 250 g/ha): 10; damage to plant (100=total damage; 0=no damage) ABUTH ([8]; Pre-Emergence at 15.625 g/ha): 0; damage to plant (100=total damage; 0=no damage) ABUTH ([8]; Pre-Emergence at 62.5 g/ha): 0; damage to plant (100=total damage; 0=no damage) ABUTH ([8]; Pre-Emergence at 250 g/ha): 0; damage to plant (100=total damage; 0=no damage) ZEAMX (corn (Zea mays, ZEAMX) [9]; Post-Emergence at 15.625 g/ha): 0; damage to plant (100=total damage; 0=no damage) ZEAMX (corn (Zea mays, ZEAMX) [9]; Post-Emergence at 62.5 g/ha): 0; damage to plant (100=total damage; 0=no damage) ZEAMX (corn (Zea mays, ZEAMX) [9]; Post-Emergence at 250 g/ha): 10; damage to plant (100=total damage; 0=no damage) ABUTH ([10]; Post-Emergence at 15.625 g/ha): 0; damage to plant (100=total damage; 0=no damage) ABUTH ([10]; Post-Emergence at 62.5 g/ha): 0; damage to plant (100=total damage; 0=no damage) ABUTH ([10]; Post-Emergence at 250 g/ha): 0; damage to plant (100=total damage; 0=no damage) SETFA ([11]; Post-Emergence at 15.625 g/ha): 20; damage to plant (100=total damage; 0=no damage) SETFA ([11]; Post-Emergence at 62.5 g/ha): 60; damage to plant (100=total damage; 0=no damage) SETFA ([11]; Post-Emergence at 250 g/ha): 80; damage to plant (100=total damage; 0=no damage) AMARE ([12]; Post-Emergence at 15.625 g/ha): 0; damage to plant (100=total damage; 0=no damage) AMARE ([12]; Post-Emergence at 62.5 g/ha): 0; damage to plant (100=total damage; 0=no damage) AMARE ([12]; Post-Emergence at 250 g/ha): 0
